The values that follow are results of earlier work, collected in patent US20040054006A1 (priority 1999, published 2004).

The conditions of series [1]: feeding animals cyclocreatine, e.g. 1% dietary.
For series [2] the following is noted: newly hatched chicks, diet containing 1% cyclocreatine.
The conditions of series [3]: fed to mice, rats and chicks.
The conditions of series [4]: 1% dietary cyclocreatine.
For series [5] the following is noted: rats, dietary 1% cyclocreatine.
For the next series, the system named is creatine kinase. Conditions: forward reaction, both in vitro and in vivo.
The conditions of series [6]: mice, up to 1% of diet for 2 weeks or for over 4 weeks.
The conditions of series [7]: intravenous injection, up to 8 grams/day, patients with cardiac diseases.

Take `NC1=NCCN1CC(=O)O` [cyclocreatine, 1-carboxymethyl-2-iminoimidazolidine]: in series [1], the “accumulation in different organs” value is on record as “accumulation of cyclocreatine in different organs in mM concentrations”. In addition, the “growth versus control chicks” value in series [2] was “grew more slowly than control chicks”. Also, in series [2] (in the presence of antibiotics), the mortality entry was “without significant mortality”. Besides, the tolerability entry in series [3] was “well-tolerated”. Moreover, in series [4], the antiviral activity result is reported as “antiviral activity of cyclocreatine is observed”. The tissue uptake result in series [5] is “taken up by muscle, heart and brain”. For the same molecule, in the series on creatine kinase, the “phosphorylation by creatine kinase” value was “phosphorylated efficiently”. Besides, the gross adverse effects result in series [6] is reported as “without gross adverse effects”.
Consider “N-phosphoryl creatine [Creatine phosphate]”, for which, in series [7], the adverse side effects result is reported as “no adverse side effects”.
